The source of these data is US10000380B2, “Method for the manufacture of polymeric sulfur” (EASTMAN CHEMICAL COMPANY, priority 2016, dated 2018).

The series is described as follows: Solubility of cyclooctasulfur, cyclododecasulfur and crystalline polymeric sulfur in carbon disulfide, chlorobenzene and para-xylene (supernatant sulfur content by Uniquant). It counts as physicochemical. As for the experimental part: Samples were also analyzed using X-ray fluorescence and the UniQuant software package. UniQuant (UQ) is an x-ray fluorescence (XRF) analysis tool that affords standardless XRF analysis of samples. Samples can then be semi-quantitatively analyzed for up to 72 elements beginning with row three in the periodic table (i.e. Na to higher Z). The data are mathematically corrected for matrix differences between calibration standards and samples as well as absorption and enhancement effects; i.e. inter-element effects. Some factors that can affect the quality of results include granularity in the sample (leading to shadow effects), mineralogical effects (due to sample inhomogeneity), insufficient sample size, and lack of knowledge of the sample matrix. In cases where a sample was amenable to both, the XRF UQ analysis and the ICP-OES (i.e. quantitative) analysis generally agree within +/−10%. Samples were analyzed for Zn, Br, Cl, and S content by UQ.
Fifty grams of p-xylene was added to each of three identical 100-milliliter jacketed glass vessels fitted with a circulating heating bath, cooling water condenser, magnetic stir bar and stir plate, and nitrogen purge. All vessels were heated to the desired temperature, and cyclooctasulfur, cyclododecasulfur (prepared as in Example 2), and unoiled commercial crystalline polymeric sulfur (Crystex™) was added in sufficient quantities to each of the glass vessels to allow undissolved solids to remain after dissolution and equilibration of the mixture. The equilibration period typically lasted 2 to 8 hours, during which the contents of the vessel were maintained at the desired temperature and stirred continuously. Upon equilibration, supernatant liquid was withdrawn from the vessels via a heated fritted glass pipette (heated to the same temperature as the solution). The supernatants were analyzed by Uniquant to determine sulfur content, indicating the solubility of the sulfur species at the vessel temperature. Similar experiments were conducted for carbon disulfide and chlorobenzene for each of the three solutes.

The structures appear in SMILES notation.

Consider `S1SSSSSSSSSSS1` [Cyclododecasulfur, cyclododecasulfur], for which, for the setting “in p-xylene, chlorobenzene and CS2”, the “Solubility relative to polymeric sulfur” value was “at least an order of magnitude more soluble”. Also, the “Solubility in weight % of solute in solvent” value (“Solubility in weight %” below) is given as 0.2 wt % (solvent CS2, 22 °C); 0.5 wt % (solvent CS2, 45 °C); 0.015 wt % (solvent chlorobenzene, 45 °C); 0.44 wt % (solvent chlorobenzene, 115 °C); <0.05 wt % (solvent p-xylene, 45 °C); 0.4 wt % (solvent p-xylene, 115 °C).

In the case of `S1SSSSSSS1` [Cyclooctasulfur, cyclooctasulfur], the “Solubility relative to cyclododecasulfur” value (in p-xylene, chlorobenzene and CS2, depending on temperature) lay in the range of 30 to 200 times. Moreover, the “Solubility in weight %” value is listed as 32 wt % (solvent CS2, 22 °C); 48 wt % (solvent CS2, 45 °C); 2.4 wt % (solvent chlorobenzene, 22 °C); 6.2 wt % (solvent chlorobenzene, 45 °C); 21.7 wt % (solvent chlorobenzene, 115 °C); 2.3 wt % (solvent p-xylene, 22 °C). The “Solubility in weight %” value reads like this: (solvent p-xylene, 45 °C) 5.6 wt %; (solvent p-xylene, 115 °C) 18.7 wt %.
